The source of these data is patent publication US20120003667A1, “ELECTROPHORETIC TAG-BASED IN VITRO ASSAY TO QUANTIFY DIMERIZATION OF P66 AND P51 SUB-UNITS OF HIV-1 REVERSE TRANSCRIPTASE (RT)” (priority 2007, published 2012).

In test [1] the target is T1, His-p51/FLAG-p66 RT heterodimer (Human immunodeficiency virus type 1 group M subtype B, UniProt P12497).
T1 construct: The gene for the 66 kDa subunit of HIV-1 RT; The gene for the 51 kDa subunit of HIV-1 RT; made in house; host or cells: E. coli
Nature of the test: Microplate eTag assay to monitor p66-p51 RT dimerization, in the presence of drugs. The test is classed as binding. Conditions: drug concentration varied from 0 μM to 100 μM; released eTag quantitated; read-out: IC50 (heterodimerization of p66 and p51). The procedure: The assay was performed by first capturing His-tagged p51 on Ni^2+-NTA microplates, and then adding FLAG-tagged p66 to form the heterodimer. To the heterodimer complex was added a solution of eTag covalently linked to FLAG antibodies resulting His-p51/FLAG-p66 RT heterodimer complexed to an eTag immobilized on the microplates. After washing to remove unbound material, the eTag was cleaved by the addition of methylene blue, and the amount of released eTags was measured and quantitated by electrophoretic separation.

The target in test [2] is T2, heterodimerization of p66 and p51 (Human immunodeficiency virus type 1 group M subtype B, UniProt P12497).
T2 construct: active form of HIV-1 RT is a heterodimer containing two polypeptides, p66 and p51
Conditions: literature comparison values; cited from earlier work.

One may read the IC50 as the point on the concentration scale where inhibition reaches its midpoint. Turning to calmodulin [CAM], the IC50 in test [1] is 3.7 µM; in test [2], 1.9 µM.

“[2′,5′-bis-o-(butyldimethylsilyl)-3′-spiro 5′-(4′-amino-1′,2′-oxothiole-2′,2′-dioxide] [TSAO]”: the IC50 in test [1] is 6.4 µM; in test [2], 6.7 µM.
